Test results published in PubChem BioAssay (NCI).
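Five concentrations, 48 hours, 96-well plates. TGI: concentration producing complete growth inhibition.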

Tests used:
Assay in all cases: DTP human tumour cell line panel, 48 h
[1] = tested on: HCC-2998 colon
[2] = tested on: SR leukemia
[3] = tested on: UACC-257 melanoma
[4] = tested on: CAKI-1 renal
[5] = tested on: HOP-18 NSCLC
[6] = tested on: UACC-62 melanoma
[7] = tested on: K-562 leukemia
[8] = tested on: SF-268 CNS
[9] = tested on: SK-MEL-5 melanoma
[10] = tested on: TK-10 renal
[11] = tested on: RPMI-8226 leukemia
[12] = tested on: DLD-1 colon
[13] = tested on: NCI-H460 lung
[14] = tested on: CCRF-CEM leukemia
[15] = tested on: ACHN renal
[16] = tested on: LOX IMVI melanoma
[17] = tested on: M19-MEL melanoma
[18] = tested on: OVCAR-5 ovarian
[19] = tested on: SK-MEL-28 melanoma
[20] = tested on: SK-OV-3 ovarian
[21] = tested on: NCI-H226 lung
[22] = tested on: UO-31 renal
[23] = tested on: LXFL 529 NSCLC
[24] = tested on: SF-295 CNS
[25] = tested on: OVCAR-3 ovarian
[26] = tested on: XF 498 CNS
[27] = tested on: HOP-62 NSCLC
[28] = tested on: SW-620 colon
[29] = tested on: MOLT-4 leukemia
[30] = tested on: SK-MEL-2 melanoma
[31] = tested on: HOP-92 NSCLC
[32] = tested on: SNB-78 CNS
[33] = tested on: SN12C renal
[34] = tested on: OVCAR-8 ovarian
[35] = tested on: A549 NSCLC
[36] = tested on: HT29 colon
[37] = tested on: KM20L2 colon
[38] = tested on: NCI-H23 lung
[39] = tested on: RXF-631 renal
[40] = tested on: SNB-19 CNS
[41] = tested on: M14 melanoma
[42] = tested on: EKVX NSCLC
[43] = tested on: KM12 colon
[44] = tested on: 786-0 renal
[45] = tested on: NCI-H522 lung
[46] = tested on: RXF 393 renal
[47] = tested on: DMS 114 small cell lung
[48] = tested on: U251 CNS
[49] = tested on: IGROV1 ovarian
[50] = tested on: HCT-116 colon
[51] = tested on: HL-60(TB) leukemia
[52] = tested on: SF-539 CNS
[53] = tested on: OVCAR-4 ovarian
[54] = tested on: MALME-3M melanoma
[55] = tested on: COLO 205 colon
[56] = tested on: A498 renal
[57] = tested on: DMS 273 small cell lung
[58] = tested on: SNB-75 CNS
[59] = tested on: HCT-15 colon

SMILES: CCOC(=O)C(=O)Nc1c(C)cccc1CC
- TGI [1]: > 100 µM
- TGI [2]: > 100 µM
- TGI [3]: > 100 µM
- TGI [4]: > 100 µM
- TGI [5]: > 100 µM
- TGI [6]: > 100 µM
- TGI [7]: > 100 µM
- TGI [8]: > 100 µM
- TGI [9]: > 100 µM
- TGI [10]: > 100 µM
- TGI [11]: > 100 µM
- TGI [12]: > 100 µM
- TGI [13]: > 100 µM
- TGI [14]: > 100 µM
- TGI [15]: > 100 µM
- TGI [16]: > 100 µM
- TGI [17]: > 100 µM
- TGI [18]: > 100 µM
- TGI [19]: > 100 µM
- TGI [20]: > 100 µM
- TGI [21]: > 100 µM
- TGI [22]: > 100 µM
- TGI [23]: > 100 µM
- TGI [24]: > 100 µM
- TGI [25]: > 100 µM
- TGI [26]: > 100 µM
- TGI [27]: > 100 µM
- TGI [28]: > 100 µM
- TGI [29]: > 100 µM
- TGI [30]: > 100 µM
- TGI [31]: > 100 µM
- TGI [32]: > 100 µM
- TGI [33]: > 100 µM
- TGI [34]: > 100 µM
- TGI [35]: > 100 µM
- TGI [36]: > 100 µM
- TGI [37]: > 100 µM
- TGI [38]: > 100 µM
- TGI [39]: > 100 µM
- TGI [40]: > 100 µM
- TGI [41]: > 100 µM
- TGI [42]: > 100 µM
- TGI [43]: > 100 µM
- TGI [44]: > 100 µM
- TGI [45]: > 100 µM
- TGI [46]: > 100 µM
- TGI [47]: > 100 µM
- TGI [48]: > 100 µM
- TGI [49]: > 100 µM
- TGI [50]: > 100 µM
- TGI [51]: > 100 µM
- TGI [52]: > 100 µM
- TGI [53]: > 100 µM
- TGI [54]: > 100 µM

SMILES: COc1ccc(/C=[N+](\[O-])[C@H](COCc2ccccc2)c2ccccc2)cc1
- TGI [1]: > 100 µM
- TGI [3]: > 100 µM
- TGI [5]: > 100 µM
- TGI [55]: > 100 µM
- TGI [7]: > 100 µM
- TGI [8]: > 100 µM
- TGI [10]: > 100 µM
- TGI [11]: > 100 µM
- TGI [12]: > 100 µM
- TGI [13]: > 100 µM
- TGI [14]: > 100 µM
- TGI [15]: > 100 µM
- TGI [16]: > 100 µM
- TGI [18]: > 100 µM
- TGI [19]: > 100 µM
- TGI [20]: > 100 µM
- TGI [22]: > 100 µM
- TGI [23]: > 100 µM
- TGI [24]: > 100 µM
- TGI [25]: > 100 µM
- TGI [26]: > 100 µM
- TGI [27]: > 100 µM
- TGI [28]: > 100 µM
- TGI [29]: > 100 µM
- TGI [30]: > 100 µM
- TGI [31]: > 100 µM
- TGI [32]: > 100 µM
- TGI [56]: > 100 µM
- TGI [34]: > 100 µM
- TGI [36]: > 100 µM
- TGI [37]: > 100 µM
- TGI [38]: > 100 µM
- TGI [39]: > 100 µM
- TGI [40]: > 100 µM
- TGI [42]: > 100 µM
- TGI [43]: > 100 µM
- TGI [44]: > 100 µM
- TGI [57]: > 100 µM
- TGI [58]: > 100 µM
- TGI [45]: > 100 µM
- TGI [46]: > 100 µM
- TGI [47]: > 100 µM
- TGI [48]: > 100 µM
- TGI [49]: > 100 µM
- TGI [50]: > 100 µM
- TGI [51]: 77.2 µM
- TGI [52]: > 100 µM
- TGI [54]: > 100 µM

SMILES: Cn1c(=O)c2c(nc3n2CCC(=O)N3)n(C)c1=O
- TGI [2]: > 100 µM
- TGI [3]: > 100 µM
- TGI [4]: > 100 µM
- TGI [55]: > 100 µM
- TGI [6]: > 100 µM
- TGI [7]: > 100 µM
- TGI [8]: > 100 µM
- TGI [9]: > 100 µM
- TGI [10]: > 100 µM
- TGI [12]: > 100 µM
- TGI [13]: > 100 µM
- TGI [14]: > 100 µM
- TGI [15]: > 100 µM
- TGI [16]: > 100 µM
- TGI [17]: > 100 µM
- TGI [18]: > 100 µM
- TGI [19]: > 100 µM
- TGI [20]: > 100 µM
- TGI [21]: > 100 µM
- TGI [22]: > 100 µM
- TGI [23]: > 100 µM
- TGI [24]: > 100 µM
- TGI [27]: > 100 µM
- TGI [28]: > 100 µM
- TGI [29]: > 100 µM
- TGI [30]: > 100 µM
- TGI [31]: > 100 µM
- TGI [32]: > 100 µM
- TGI [56]: > 100 µM
- TGI [33]: > 100 µM
- TGI [34]: > 100 µM
- TGI [35]: > 100 µM
- TGI [36]: > 100 µM
- TGI [37]: > 100 µM
- TGI [38]: > 100 µM
- TGI [39]: > 100 µM
- TGI [40]: > 100 µM
- TGI [42]: > 100 µM
- TGI [43]: > 100 µM
- TGI [44]: > 100 µM
- TGI [57]: > 100 µM
- TGI [45]: > 100 µM
- TGI [46]: > 100 µM
- TGI [47]: > 100 µM
- TGI [48]: > 100 µM
- TGI [49]: > 100 µM
- TGI [51]: > 100 µM
- TGI [52]: > 100 µM
- TGI [53]: > 100 µM
- TGI [54]: > 100 µM

SMILES: COc1cccc2c1C1=CC(=O)CCC1C(C)(C)O2 (stereo not drawn)
- TGI [3]: > 100 µM
- TGI [4]: > 100 µM
- TGI [5]: > 100 µM
- TGI [55]: > 100 µM
- TGI [6]: > 100 µM
- TGI [7]: > 100 µM
- TGI [8]: > 100 µM
- TGI [9]: > 100 µM
- TGI [10]: > 100 µM
- TGI [11]: 50.4 µM
- TGI [12]: > 100 µM
- TGI [13]: > 100 µM
- TGI [14]: > 100 µM
- TGI [15]: > 100 µM
- TGI [16]: > 100 µM
- TGI [17]: > 100 µM
- TGI [18]: > 100 µM
- TGI [19]: > 100 µM
- TGI [20]: > 100 µM
- TGI [21]: > 100 µM
- TGI [22]: > 100 µM
- TGI [23]: > 100 µM
- TGI [24]: > 100 µM
- TGI [25]: > 100 µM
- TGI [27]: > 100 µM
- TGI [28]: 27.3 µM
- TGI [29]: > 100 µM
- TGI [30]: > 100 µM
- TGI [31]: > 100 µM
- TGI [32]: > 100 µM
- TGI [56]: > 100 µM
- TGI [33]: > 100 µM
- TGI [34]: > 100 µM
- TGI [35]: > 100 µM
- TGI [36]: > 100 µM
- TGI [37]: > 100 µM
- TGI [38]: > 100 µM
- TGI [39]: > 100 µM
- TGI [40]: > 100 µM
- TGI [41]: > 100 µM
- TGI [59]: > 100 µM
- TGI [42]: > 100 µM
- TGI [43]: > 100 µM
- TGI [44]: > 100 µM
- TGI [57]: > 100 µM
- TGI [58]: > 100 µM
- TGI [45]: > 100 µM
- TGI [46]: > 100 µM
- TGI [47]: 61.5 µM
- TGI [48]: > 100 µM
- TGI [49]: > 100 µM
- TGI [50]: > 100 µM
- TGI [51]: > 100 µM
- TGI [52]: > 100 µM
- TGI [53]: > 100 µM
- TGI [54]: > 100 µM
